Assay results taken from patent US20260027116A1, “Methods of Treating Chronic Graft-Versus-Host Disease Following Allogeneic Hematopoietic Stem Cell Transplantation” (Kadmon Corporation, LLC, priority 2022, published 2026).
Like-named read-outs stand apart in the source and are kept apart here.

Columns and labels:
[1] = molecular target: T1, BCRP (Homo sapiens, UniProt Q9UNQ0); experiment: transporter inhibition in vitro; assay type: in vitro ADME; settings: at clinically relevant concentrations
T1 sequence (Q9UNQ0 1-655): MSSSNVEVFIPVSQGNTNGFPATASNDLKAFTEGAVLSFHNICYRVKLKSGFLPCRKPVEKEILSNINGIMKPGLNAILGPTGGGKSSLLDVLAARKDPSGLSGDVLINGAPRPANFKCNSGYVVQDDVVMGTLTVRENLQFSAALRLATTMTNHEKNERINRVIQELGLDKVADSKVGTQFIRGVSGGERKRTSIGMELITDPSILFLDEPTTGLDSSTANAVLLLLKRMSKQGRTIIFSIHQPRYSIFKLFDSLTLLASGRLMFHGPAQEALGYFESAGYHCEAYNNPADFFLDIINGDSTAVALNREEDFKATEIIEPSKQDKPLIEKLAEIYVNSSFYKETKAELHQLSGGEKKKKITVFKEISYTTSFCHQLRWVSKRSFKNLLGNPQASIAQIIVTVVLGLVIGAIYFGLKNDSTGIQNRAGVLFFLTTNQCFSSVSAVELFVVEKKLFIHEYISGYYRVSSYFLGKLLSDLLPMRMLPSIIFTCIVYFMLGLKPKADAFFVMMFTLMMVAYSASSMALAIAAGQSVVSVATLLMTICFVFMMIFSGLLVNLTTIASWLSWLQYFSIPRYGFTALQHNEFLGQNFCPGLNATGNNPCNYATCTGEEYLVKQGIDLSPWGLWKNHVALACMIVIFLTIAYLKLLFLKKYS

[2] = system: cGVHD symptoms; experiment: Example 1: symptom activity by cGVHD Activity Assessment participant self-report; assay type: in vivo, human
From the text: Number of Participants With Maximal Improvement From Baseline in Symptom Activity by cGVHD Activity Assessment Participant Self-Report. cGVHD symptom severity was self-reported by participants. Participants were asked to rate their disease symptom severity over the last week on the following questions: skin itching at its worst, moth dryness at its worst, mouth pain at its worst, mouth sensitivity at its worst, main compliant on eyes, symptom severity on eyes. The severity rating was done on a 0 to 10-point numeric rating scare, where score 0 indicated ‘not at all severe cGVHD symptoms’ and score 10 indicated ‘most severe cGVHD symptoms possible’. EOT visit was performed within 3 days after the participant's last dose of study drug. Baseline value was defined as valid and last non-missing value obtained within 28 days prior to participant receiving first study medication. […] Analysis was performed on mITT population.

[3] = system: patients with chronic GVHD; settings: for Abdominal pain / Arthralgia / Cough / Decreased appetite / Diarrhea / Dysphagia / Dyspnea / Edema / Headache / Hemorrhage / Hypertension / Infection (pathogen not specified) / Muscle spasm / Musculoskeletal pain / Nasal congestion / Pruritus / Pyrexia / Rash / Viral infection / Asthenia / Nausea: 200 mg once daily (N = 83); for Asthenia: includes fatigue, malaise; for Nausea: includes nausea, vomiting
[4] = Grade 2-4 Max Post, 200 mg once daily
[5] = Grade 3-4 Max Post, 200 mg once daily

SMILES: CC(C)NC(=O)COc1cccc(-c2nc(Nc3ccc4[nH]ncc4c3)c3ccccc3n2)c1 [Belumosudil, 2-{3-[4-(1H-indazol-5-ylamino)-2-quinazolinyl]phenoxy}-N-(propan-2-yl) acetamide]
- inhibition of BCRP [1]: inhibits
- self-reported symptom activity maximal improvement 0, participants (%) ([2]; Cohort 1 200 mg QD): 1 (6%) participants
- self-reported symptom activity maximal improvement 1, participants (%) ([2]; Cohort 1 200 mg QD): 0 (0%) participants
- self-reported symptom activity maximal improvement 2, participants (%) ([2]; Cohort 1 200 mg QD): 0 (0%) participants
- self-reported symptom activity maximal improvement 4, participants (%) ([2]; Cohort 1 200 mg QD): 1 (6%) participants
- self-reported symptom activity maximal improvement from baseline −8, participants (%) ([2]; Cohort 1 200 mg QD): 0 (0%) participants
- self-reported symptom activity maximal improvement −1, participants (%) ([2]; Cohort 1 200 mg QD): 2 (12%) participants
- self-reported symptom activity maximal improvement −2, participants (%) ([2]; Cohort 1 200 mg QD): 2 (12%) participants
- self-reported symptom activity maximal improvement −3, participants (%) ([2]; Cohort 1 200 mg QD): 2 (12%) participants
- self-reported symptom activity maximal improvement −4, participants (%) ([2]; Cohort 1 200 mg QD): 2 (12%) participants
- self-reported symptom activity maximal improvement −5, participants (%) ([2]; Cohort 1 200 mg QD): 2 (12%) participants
- self-reported symptom activity maximal improvement −6, participants (%) ([2]; Cohort 1 200 mg QD): 0 (0%) participants
- self-reported symptom activity maximal improvement −7, participants (%) ([2]; Cohort 1 200 mg QD): 3 (18%) participants
- self-reported symptom activity maximal improvement 0, participants (%) ([2]; Cohort 2 200 mg BID): 1 (6%) participants
- self-reported symptom activity maximal improvement 1, participants (%) ([2]; Cohort 2 200 mg BID): 0 (0%) participants
- self-reported symptom activity maximal improvement 2, participants (%) ([2]; Cohort 2 200 mg BID): 1 (6%) participants
- self-reported symptom activity maximal improvement 4, participants (%) ([2]; Cohort 2 200 mg BID): 0 (0%) participants
- self-reported symptom activity maximal improvement from baseline −8, participants (%) ([2]; Cohort 2 200 mg BID): 0 (0%) participants
- self-reported symptom activity maximal improvement −1, participants (%) ([2]; Cohort 2 200 mg BID): 2 (13%) participants
- self-reported symptom activity maximal improvement −2, participants (%) ([2]; Cohort 2 200 mg BID): 3 (19%) participants
- self-reported symptom activity maximal improvement −3, participants (%) ([2]; Cohort 2 200 mg BID): 2 (13%) participants
- self-reported symptom activity maximal improvement −4, participants (%) ([2]; Cohort 2 200 mg BID): 2 (13%) participants
- self-reported symptom activity maximal improvement −5, participants (%) ([2]; Cohort 2 200 mg BID): 0 (0%) participants
- self-reported symptom activity maximal improvement −6, participants (%) ([2]; Cohort 2 200 mg BID): 1 (6%) participants
- self-reported symptom activity maximal improvement −7, participants (%) ([2]; Cohort 2 200 mg BID): 2 (13%) participants
- self-reported symptom activity maximal improvement 0, participants (%) ([2]; Cohort 3 400 mg QD): 0 (0%) participants
- self-reported symptom activity maximal improvement 1, participants (%) ([2]; Cohort 3 400 mg QD): 1 (5%) participants
- self-reported symptom activity maximal improvement 2, participants (%) ([2]; Cohort 3 400 mg QD): 2 (10%) participants
- self-reported symptom activity maximal improvement 4, participants (%) ([2]; Cohort 3 400 mg QD): 0 (0%) participants
- self-reported symptom activity maximal improvement from baseline −8, participants (%) ([2]; Cohort 3 400 mg QD): 1 (5%) participants
- self-reported symptom activity maximal improvement −1, participants (%) ([2]; Cohort 3 400 mg QD): 2 (10%) participants
- self-reported symptom activity maximal improvement −2, participants (%) ([2]; Cohort 3 400 mg QD): 2 (10%) participants
- self-reported symptom activity maximal improvement −3, participants (%) ([2]; Cohort 3 400 mg QD): 2 (10%) participants
- self-reported symptom activity maximal improvement −4, participants (%) ([2]; Cohort 3 400 mg QD): 1 (5%) participants
- self-reported symptom activity maximal improvement −5, participants (%) ([2]; Cohort 3 400 mg QD): 2 (10%) participants
- self-reported symptom activity maximal improvement −6, participants (%) ([2]; Cohort 3 400 mg QD): 4 (19%) participants
- self-reported symptom activity maximal improvement −7, participants (%) ([2]; Cohort 3 400 mg QD): 0 (0%) participants
- adverse reactions leading to dose interruption ([3]; 200 mg once daily, N=83): 29%
- dose interruption due to asthenia, dyspnea, hemorrhage, hypotension, liver function test abnormal, nausea, pyrexia, edema, renal failure (each) ([3]; 200 mg once daily, N=83): 2%
- dose interruption due to diarrhea ([3]; 200 mg once daily, N=83): 4%
- dose interruption due to infections ([3]; 200 mg once daily, N=83): 11%
- patients with fatal adverse reaction ([3]; 200 mg once daily, N=83): one
- permanent discontinuation due to adverse reactions ([3]; 200 mg once daily, N=83): 18%
- permanent discontinuation due to nausea ([3]; 200 mg once daily, N=83): 4%
- Abdominal pain ([3]; All Grades): 22%
- Arthralgia ([3]; All Grades): 15%
- Cough ([3]; All Grades): 30%
- Decreased appetite ([3]; All Grades): 17%
- Diarrhea ([3]; All Grades): 35%
- Dysphagia ([3]; All Grades): 16%
- Dyspnea ([3]; All Grades): 33%
- Edema ([3]; All Grades): 27%
- Headache ([3]; All Grades): 21%
- Hemorrhage ([3]; All Grades): 23%
- Hypertension ([3]; All Grades): 21%
- Infection (pathogen not specified) ([3]; All Grades): 53%
- Muscle spasm ([3]; All Grades): 17%
- Musculoskeletal pain ([3]; All Grades): 22%
- Nasal congestion ([3]; All Grades): 12%
- Pruritus ([3]; All Grades): 11%
- Pyrexia ([3]; All Grades): 18%
- Rash ([3]; All Grades): 12%
- Viral infection ([3]; All Grades): 19%
- Asthenia ([3]; All Grades): 46%
- Nausea ([3]; All Grades): 42%
- Alanine Aminotransferase Increased [3, 4]: 7%
- Alkaline Phosphatase Increased [3, 4]: 9%
- Calcium Decreased [3, 4]: 12%
- Creatinine Increased [3, 4]: 4%
- Gamma Glutamyl Transferase Increased [3, 4]: 21%
- Hemoglobin Decreased [3, 4]: 11%
- Lymphocytes Decreased [3, 4]: 29%
- Neutrophil Count Decreased [3, 4]: 8%
- Phosphate Decreased [3, 4]: 28%
- Platelets Decreased [3, 4]: 10%
- Potassium Increased [3, 4]: 7%
- Alanine Aminotransferase Increased [3, 5]: 2%
- Alkaline Phosphatase Increased [3, 5]: 0%
- Calcium Decreased [3, 5]: 1%
- Creatinine Increased [3, 5]: 0%
- Gamma Glutamyl Transferase Increased [3, 5]: 11%
- Hemoglobin Decreased [3, 5]: 1%
- Lymphocytes Decreased [3, 5]: 13%
- Neutrophil Count Decreased [3, 5]: 4%
- Phosphate Decreased [3, 5]: 7%
- Platelets Decreased [3, 5]: 5%
- Potassium Increased [3, 5]: 1%
- Abdominal pain ([3]; Grades 3-4): 1%
- Arthralgia ([3]; Grades 3-4): 2%
- Cough ([3]; Grades 3-4): 0%
- Decreased appetite ([3]; Grades 3-4): 1%
- Diarrhea ([3]; Grades 3-4): 5%
- Dysphagia ([3]; Grades 3-4): 0%
- Dyspnea ([3]; Grades 3-4): 5%
- Edema ([3]; Grades 3-4): 1%
- Headache ([3]; Grades 3-4): 0%
- Hemorrhage ([3]; Grades 3-4): 5%
- Hypertension ([3]; Grades 3-4): 7%
- Infection (pathogen not specified) ([3]; Grades 3-4): 16%
- Muscle spasm ([3]; Grades 3-4): 0%
- Musculoskeletal pain ([3]; Grades 3-4): 4%
- Nasal congestion ([3]; Grades 3-4): 0%
- Pruritus ([3]; Grades 3-4): 0%
- Pyrexia ([3]; Grades 3-4): 1%
- Rash ([3]; Grades 3-4): 0%
- Viral infection ([3]; Grades 3-4): 4%
- Asthenia ([3]; Grades 3-4): 4%
- Nausea ([3]; Grades 3-4): 4%
